The test system of assay [1] is brain cancer cell (glioma) U118. Nature of the assay: Brain cancer (glioma) U118 cell growth. The assay is classed as cell-based. The settings on record: 72 hours of incubation. A digest of the protocol:
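Cell counts taken with compound, mean of three independent experiments. Applies to U118.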

The test system of another assay is Jurkat cells. Nature of the assay: Human leukaemia (Jurkat cells). The assay is classed as cell-based. The note with it: 72 hours. Here is the method:
(§1) Overall, it may be seen that the series of compounds A and B are the best, so the effectiveness of these series against the development of leukaemia and liver cancer (Tables 9 and 10) was tested.

In assay [2] the test system is Spontaneously Hypertensive Rats (SHR). Put plainly: Blood pressure of SHR rats (cuff-tail method). The assay is classed as in vivo, rat. The settings on record: 200 mg/kg day p.o., 30 days, before treatment 214 mmHg. Summed up:
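SHR rats dosed orally at 200 mg/kg day for 30 days against water vehicle. At study end, blood pressure taken non-invasively by tail cuff and apoA-I assessed as gene expression by RT-PCR.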

In another assay the test system is P19 cells. Nature of the assay: NMDA-induced neuronal death in P19 cells. The settings on record: for Neuronal death (P19 cells) after treatment with NMDA: NMDA alone 100% death, control without NMDA 0%, negative values = proliferation. Type of assay: cell-based.
The subject of the next assay is α-synuclein. Put plainly: Expression of α-synuclein in neuronal cultures (cells P19). The assay is classed as cell-based. The settings on record: untreated cells 100%.
Assay [3] in a line: Serum cholesterol, triglycerides and glucose in SHR rats (colorimetric). The assay is classed as in vivo, rat. The settings on record: 200 mg/kg daily p.o., 28 days, untreated rats 100%. Summed up:
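SHR rats dosed p.o. at 200 mg/kg daily for 28 days; serum cholesterol, triglycerides and glucose measured colorimetrically. Values given as percent of untreated control rats, set at 100%.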

In another assay the test system is Alzh mice. Nature of the assay: Radial maze in animal model of Alzheimer's disease (Alzh mice). The settings on record: animals with Alzheimer's disease, 20 mg/kg daily po, 3 months. Type of assay: in vivo. The text has this:
On the vertical axis it is represented the neuronal death (% of control) depending on the fatty acid used (x-axis). The presence of PUFAs induced modest increases in the survival of P19 cells in the presence of NMDA. D-PUFAs induced significant increases in cell survival values, exceeding in more than 200% in the case of 226A1. Since the number of cells in cultures treated cells is higher than in control cells, it may be affirmed that these compounds not only prevent neuronal death induced by NMDA (anti-neurodegenerative) but also are neuroregenerative agents. […] In the Y axis of the left figure it is shown the time taken to complete the exercise and in the vertical Y axis of the right figure the total number of errors made in the implementation of programmed exercise (mean standard error of the mean) (runtime). In both figures, from left to right, it is represented in the X axis the results in healthy mice (control) (first column), in mice with induced Alzheimer and treated with water as vehicle (second column) or in mice treated with the compound 226B1 (third column). Animals with Alzheimer's disease took longer and made more errors than healthy mice, being the differences statistically significant (*, P<0.05).
To test the efficacy of the compounds of the present invention to induce neuroregeneration or inhibit neurodegeneration, an animal model of Alzheimer's disease was used. In this model mice develop neurodegeneration because they express a series of mutant proteins that lead to brain damage (Alzh mice). B6 mice were used as healthy animal controls. Both groups of animals were treated for a period of 3 months with vehicle (water) or with various D-PUFA (20 mg/kg, daily po) since they were an age of 3 months. To determine whether cognitive improvement occurred after treatment, animal behaviour was monitored in the radial maze. The animals are kept on restricted diet to have appetite. In a symmetrical 8-arm radial maze, visual marks were placed to facilitate the orientation of the animal and food (15 mg tablet) was put in four of the arms. The time each animal took to complete the exercise, and the number of errors, were measured using a camera attached to a computer system. In this sense, Alzheimer animals have values about 50% higher than healthy animals, both by the time it takes to perform the exercise and by the number of errors made (FIG. 4B). […] In this regard, the effectiveness of the compound 183B1, 205A1, 205B1, 226A1, 226 V1 was also tested, showing improvements in animals with Alzheimer's disease (times of 98, 92, 93, 86 and 89 seconds, respectively). […]

In the next assay the test system is B6 healthy mice. Nature of the assay: Radial maze in control animals (B6 healthy mice). The assay is classed as in vivo. The settings on record: 20 mg/kg daily po, 3 months. As for the experimental part: To test the efficacy of the compounds of the present invention to induce neuroregeneration or inhibit neurodegeneration, an animal model of Alzheimer's disease was used. In this model mice develop neurodegeneration because they express a series of mutant proteins that lead to brain damage (Alzh mice). B6 mice were used as healthy animal controls. Both groups of animals were treated for a period of 3 months with vehicle (water) or with various D-PUFA (20 mg/kg, daily po) since they were an age of 3 months. To determine whether cognitive improvement occurred after treatment, animal behaviour was monitored in the radial maze. The animals are kept on restricted diet to have appetite. In a symmetrical 8-arm radial maze, visual marks were placed to facilitate the orientation of the animal and food (15 mg tablet) was put in four of the arms. The time each animal took to complete the exercise, and the number of errors, were measured using a camera attached to a computer system. In this sense, Alzheimer animals have values about 50% higher than healthy animals, both by the time it takes to perform the exercise and by the number of errors made (FIG. 4B). […] In this regard, the effectiveness of the compound 183B1, 205A1, 205B1, 226A1, 226 V1 was also tested, showing improvements in animals with Alzheimer's disease (times of 98, 92, 93, 86 and 89 seconds, respectively). On the other hand, it is also interesting that these same compounds (183B1, 205A1, 205B1, 226A1, 226B1 and 226V1) also produced reductions in the times taken to complete the experiment in control animals (B6 healthy mice) of 8s, 11s, 12s, 18s, 16s and 14s, respectively. Therefore, it may be concluded that these compounds have significant activity against neurodegeneration and in neuroregeneration.

Assay [4] concerns heterotrimeric Gi1 protein. Nature of the assay: Binding of heterotrimeric Gi1 protein to model membranes (centrifugation, immunoblotting). The settings on record: phosphatidylcholine:phosphatidylethanolamine (6:4) 2 mM phospholipid, 0.1 μM D-PUFA; control 100 ± 5; in % (unit assumed). An excerpt: The net result is a regulation of cell signalling leading to the reversal of various pathological processes, as shown later. […] The Control is a sample of model membranes in the absence of fatty acids.
On the technique in general: In western blotting, separated proteins are transferred to a membrane and probed.

The subject of another assay is HepG2 cells. Put plainly: Liver cancer (HepG2 cells). Type of assay: cell-based. The settings on record: 72 hours. Here is the method:
These charts show the antitumor efficacy of the compounds of this invention against the growth of breast cancer cells, brain (glioma), and lung cancer. […] The other experimental conditions are identical to those described in the preceding paragraph.
as §1

The text below walks through data of patent US11253497B2, “Use of derivatives of polyunsaturated fatty acids as medicaments” (Lipopharma Therapeutics, S.L., priority 2009, dated 2022).

What is called IC50 is the midpoint of a concentration-inhibition curve.

SMILES strings stand for the structures.

As for `CCC=CCC=CCC=CCCCCCCC(O)C(=O)[O-].[Na+]` (stereo not drawn) [183B1], the IC50 in [1] came to 202 µM. In the assay with Jurkat cells, this molecule yielded an IC50 of 196 µM. Also, the Blood pressure in assay [2] was found to be 197 mm Hg. In addition, in the assay with P19 cells, the “Neuronal death (P19 cells) after treatment with NMDA” value (“Neuronal death (P19 cells)” for short) was −58%. Also, the “Expression of α-synuclein” value with α-synuclein came to 43%. Moreover, in assay [3], the “Cholesterol in serum (top number)” value is 75%, the “Glucose in serum (bottom number)” value is 84% and the “Triglycerides in serum (central number)” value was determined as 66%. Also, in the assay on Alzh mice, the “Time to complete the radial maze exercise” value was 98 s. Besides, in the assay with B6 healthy mice, the “Reduction in the time taken to complete the experiment” value (“Reduction in the time taken” below) amounted to 8 s.

As for `CCC=CCC=CCC=CCC=CCC=CCCC(O)C(=O)O` (stereo not drawn) [205A1, 2-hydroxy-5,8,11,14,17-eicosapentaenoic acid], in assay [4], the G protein binding is on record as 406 ± 14. In addition, in [1], half-maximal inhibition (IC50) was put at 400 µM. The IC50 in the assay with Jurkat cells (Homo sapiens, Jurkat) was 376 µM. This molecule also had an IC50 in the assay with HepG2 cells (Homo sapiens, HepG2) of 401 µM. Moreover, in assay [2], the Blood pressure worked out at 193 mm Hg. In addition, the “Neuronal death (P19 cells)” value with P19 cells is recorded as −50%. In addition, the “Expression of α-synuclein” value in the assay with α-synuclein turned out to be 35%. In addition, in assay [3], the “Cholesterol in serum (top number)” value amounted to 69%, the “Glucose in serum (bottom number)” value came out at 82% and the “Triglycerides in serum (central number)” value came to 74%. For the same molecule, the “Time to complete the radial maze exercise” value in the assay with Alzh mice came out at 92 s. In the assay with B6 healthy mice, the “Reduction in the time taken” value came to 11 s.

With `CCC=CCC=CCC=CCC=CCC=CCCC(O)C(=O)[O-].[Na+]` (stereo not drawn) [205B1], the IC50 in assay [1] is 391 µM. The same molecule displayed an IC50 with Jurkat cells of 294 µM. In addition, the Blood pressure in assay [2] worked out at 187 mm Hg. Moreover, the “Neuronal death (P19 cells)” value with P19 cells is −52%. Further, in the assay on α-synuclein, the “Expression of α-synuclein” value stood at 41%. In assay [3], the “Cholesterol in serum (top number)” value is 58%, the “Glucose in serum (bottom number)” value came to 87% and the “Triglycerides in serum (central number)” value amounted to 65%. For the same molecule, in the assay on Alzh mice, the “Time to complete the radial maze exercise” value was found to be 93 s. For the same molecule, in the assay with B6 healthy mice, the “Reduction in the time taken” value came to 12 s.

`CCC=CCC=CCC=CCC=CCC=CCC=CCC(O)C(=O)O` (stereo not drawn) [226A1] came in with a G protein binding in assay [4] of 422 ± 26. In assay [1], this molecule showed an IC50 of 214 µM. This molecule showed a half-maximal inhibitory concentration (IC50) in the assay on Jurkat cells of 85 µM. The molecule also gave an IC50 in the assay with HepG2 cells of 164 µM. Moreover, in assay [2], the Blood pressure is listed as 194 mm Hg. Besides, the “Neuronal death (P19 cells)” value in the assay on P19 cells is given as −230%. Besides, the “Increase in cell survival in the presence of NMDA (FIG. 4A)” value in the assay with P19 cells (P19 cells) is “more than 200%”. Moreover, the “Expression of α-synuclein” value in the assay with α-synuclein was determined as 23%. Besides, in assay [3], the “Cholesterol in serum (top number)” value was 64%, the “Glucose in serum (bottom number)” value stood at 79% and the “Triglycerides in serum (central number)” value was 71%. The “Time to complete the radial maze exercise” value in the assay with Alzh mice stood at 86 s. Further, the “Reduction in the time taken” value with B6 healthy mice came out at 18 s.
